Measured values published in ChEMBL document CHEMBL3045091, “Synthesis and antimicrobial activities of some new 5-((3-(aryl)-1-phenyl-1H-pyrazol-4-yl)methylene)-3-phenylthiazolidine-2,4-diones” (2012).
Values after ≈ are worked out from the molar mass of the structure shown. Active and inactive are the calls of the source. The calls are words filed in the database; no cut-off is given here.

Tests used:
Staphylococcus aureus [1] = test: Antibacterial activity against Staphylococcus aureus MTCC 96 at 4 mg/ml after 24 hr by agar well diffusion method; type: functional; conditions: MTCC 96, 24 h, read-out: DIZ
Aspergillus flavus = test: Antifungal activity against Aspergillus flavus after 7 days by poisoned food technique; type: functional
Aspergillus niger = test: Antifungal activity against Aspergillus niger after 7 days by poisoned food technique; type: functional
Staphylococcus aureus [2] = test: Antibacterial activity against Staphylococcus aureus MTCC 96 after 24 hr by macro dilution tube method; type: functional; conditions: MTCC 96, 24 h
Bacillus subtilis [3] = test: Antibacterial activity against Bacillus subtilis MTCC 121 after 24 hr by macro dilution tube method; type: functional; conditions: MTCC 121, 24 h
Bacillus subtilis [4] = test: Antibacterial activity against Bacillus subtilis MTCC 121 at 4 mg/ml after 24 hr by agar well diffusion method; type: functional; conditions: MTCC 121, 24 h, read-out: DIZ
Escherichia coli = test: Antibacterial activity against Escherichia coli MTCC 1652 at 4 mg/ml after 24 hr by agar well diffusion method; type: functional, organism-based
Pseudomonas aeruginosa [5] = conditions: MTCC 741, 4 mg/ml
Description: (§1) Antibacterial activity against Pseudomonas aeruginosa MTCC 741 at 4 mg/ml after 24 hr by agar well diffusion method

Pseudomonas aeruginosa [6] = test: microbe, parasite or virus in culture; conditions: MTCC 741, 24 h, read-out: DIZ
Description: as §1

| SMILES | zone of inhibition at 4000 µg/mL (Staphylococcus aureus [1]) [mm] | growth inhibition (GI) (Aspergillus flavus) [%] | growth inhibition (GI) (Aspergillus niger) [%] | MIC (Staphylococcus aureus [2]) [µg/mL] | MIC (Bacillus subtilis [3]) [µg/mL] | zone of inhibition at 4000 µg/mL (Bacillus subtilis [4]) [mm] | diameter of the inhibition zone (DIZ) (Escherichia coli) | DIZ (Pseudomonas aeruginosa [5]) | zone of inhibition at 4000 µg/mL (Pseudomonas aeruginosa [6]) [mm] |
| --- | --- | --- | --- | --- | --- | --- | --- | --- | --- |
| Cc1ccc(-c2nn(-c3ccccc3)cc2/C=C2\SC(=O)N(c3ccccc3)C2=O)cc1 | 18.3 | 50 | 44.4 | 128 (≈ 293 µM) | 64 (≈ 146 µM) | 19.6 | inactive | inactive |  |
| COc1ccc(-c2nn(-c3ccccc3)cc2/C=C2\SC(=O)N(c3ccccc3)C2=O)cc1 | 18.6 | 66.6 | 50 | 128 (≈ 282 µM) | 128 (≈ 282 µM) | 16.6 | inactive | inactive |  |
| O=C1S/C(=C\c2cn(-c3ccccc3)nc2-c2ccc(O)cc2)C(=O)N1c1ccccc1 | 20.3 | 44.4 | 50 | 64 (≈ 146 µM) | 128 (≈ 291 µM) | 18.3 | inactive | inactive |  |
| O=C1S/C(=C\c2cn(-c3ccccc3)nc2-c2ccc([N+](=O)[O-])cc2)C(=O)N1c1ccccc1 | 20.6 | 61.1 | 50 | 64 (≈ 137 µM) | 128 (≈ 273 µM) | 18.3 | inactive | inactive |  |
| O=C(O)c1cn(C2CC2)c2cc(N3CCNCC3)c(F)cc2c1=O [CIPROFLOXACIN] | 26 |  |  | 5 (≈ 15.1 µM) | 5 (≈ 15.1 µM) | 24 |  |  | 22 |
| O=C1S/C(=C\c2cn(-c3ccccc3)nc2-c2ccc(F)cc2)C(=O)N1c1ccccc1 | 19.3 | 55.5 | 55.5 | 128 (≈ 290 µM) | 32 (≈ 72.5 µM) | 20.6 | inactive | inactive |  |
| OC(Cn1cncn1)(Cn1cncn1)c1ccc(F)cc1F [FLUCONAZOLE] |  | 77.7 | 81.1 |  |  |  |  |  |  |
| O=C1S/C(=C\c2cn(-c3ccccc3)nc2-c2cccs2)C(=O)N1c1ccccc1 | 22.3 | 33.3 | 50 | 32 (≈ 74.5 µM) | 32 (≈ 74.5 µM) | 21.6 | inactive | inactive |  |
| O=C1S/C(=C\c2cn(-c3ccccc3)nc2-c2ccc(Br)cc2)C(=O)N1c1ccccc1 | 21.6 | 55.5 | 38.8 | 32 (≈ 63.7 µM) | 32 (≈ 63.7 µM) | 20.6 | inactive | inactive |  |
| O=C1S/C(=C\c2cn(-c3ccccc3)nc2-c2ccccc2)C(=O)N1c1ccccc1 | 18.6 | 50 | 55.5 | 128 (≈ 302 µM) | 64 (≈ 151 µM) | 19.3 | inactive | inactive |  |
| O=C1S/C(=C\c2cn(-c3ccccc3)nc2-c2ccc(Cl)cc2)C(=O)N1c1ccccc1 | 20.6 | 61.1 | 55.5 | 64 (≈ 140 µM) | 128 (≈ 280 µM) | 18.3 | inactive | inactive |  |
